Test results published in patent publication US11560370B1, “5-membered heteroaryl carboxamide compounds for treatment of HBV” (Assembly Biosciences, Inc., priority 2018, dated 2023).

Test system: HBV
Test: Viral production from HepAD38 cells, viral load by qPCR of HBV core sequence
Format: cell-based
Settings: 5 days, supernatant HBV DNA by qPCR, read-out: Viral Load EC50 Activity range
Procedure: Assay Measuring Activity of Test Compounds on Viral Production from HepAD38 Cells
HepAD38 cells grown in a T-150 flask (Corning, cat #: 430825) with Growth Medium (DMEM/F12 (1:1) (Hyclone, cat #: SH30023.02), 1× Pen/Strep (Invitrogen, cat #: 15140-122), 10% FBS (Tissue Culture Biologics, cat #: 101), 250 μg/mL G418 (Alfa Aesar, cat #: J62671), 1 μg/mL Tetracycline (Teknova, cat #: T3320)) were detached with 0.25% trypsin-EDTA to (Invitrogen, cat #: 25200-056). Tetracycline-free treatment medium (15 mL DMEM/F12 (1:1) 1× Pen/step, with 2% FBS, Tet-system approved (Clontech, cat #: 631106) were then added to mix, transferred into a 50 ml conical tube (Falcon, cat #: 21008-918,) and spun at 1300 rpm for 5 min. Pelleted cells were then re-suspended/washed with 50 mL of 1×DPBS (Invitrogen, cat #: 14190-136) 2 times and 50 mL treatment medium twice. HepAD38 cells were then re-suspended with 10 mL of treatment medium, syringed and counted. Wells of 96-well clear bottom TC plate (Corning, cat #: 3904,) were seeded at 50,000 cells/well in 180 μL of treatment medium, and 20 μL of either 10% DMSO (Sigma, cat #: D4540) as controls or a 10× solution of test compounds in 10% DMSO in treatment media was added for a final compound concentration starting at 10 μM, and plates were incubated in 5% CO2 incubator at 37° C. for 5 days.
Subsequently viral load production was assayed by quantitative PCR (qPCR) of the HBV core sequence. PCR reaction mixture containing forward primers HBV-f 5′-CTGTGCCTTGGGTGGCTTT-3′ (IDT DNA), Reverse primers HBV-r 5′-[…]-3′ (IDT DNA), Fluorescent TaqMan™ Probes HBV-probe 5′-FAM/AGCTCCAAA/ZEN/[…]/3IABkFQ-3′ (IDT DNA), 10 μL/well of PerfeCTa® qPCR ToughMix® (Quanta Biosciences, Cat #: 95114-05K), and 6 μL/well of DEPC water (Alfa Aesar, cat #: J62087) was prepared. […] of supernatant was added to 16 μL of the reaction mixture in a qPCR plate (Applied Biosytems, Cat #: 4309849), sealed with a film (Applied Biosystems, Cat #: 4311971), centrifuged for a few seconds, and subsequently run on an Applied Biosystems VIIA7. The PCR mixture was incubated at 45° C. for 5 min, then 95° C. for 10 min, followed by 40 cycles of 10 seconds at 95° C. and 20 seconds at 60° C. Viral load was quantified against known HBV DNA standards by using ViiA™ 7 Software. Viral load in the supernatant from wells with treated cells were compared against viral load in supernatant from DMSO control wells (>3 per plate). Cell viability assay was performed with CellTiter-Glo Luminescent Cell Viability Assay (Promega, cat #: G7573) with modification. Mixed appropriate amount of CellTiter-Glo (CTG) 1×DPBS in a 1:1 ratio, added 100 uL of the mixture to each well followed completely removal of all supernatant in each well without touching cell surface. Incubated the plate at room temperature for 10 min on an orbital shaker, and then read the plate with a plate reader (TECAN M1000 or Envision). EC50 or CC50 values were calculated through curve-fitting of the four-parameter nonlinear-logistic-regression model (GraphPad Prism or Dotmatics). CC50 values were all >10 μM.

Question: Which EC50 does the source give for `Cn1nc(C2CC3CSCC3C2)c(C(=O)Nc2ccc(F)c(Cl)c2)c1N` (centres unmarked) [AIA-055] here?
Answer: < 100 nM

Question: `CC(C)C1(O)CC2C[C@@H](c3nn(C)c(N)c3C(=O)Nc3ccc(F)c(Cl)c3)C[C@H]2C1O` (some centres unmarked) [AIA-257-1] was tested. Which EC50 did it give?
Answer: < 100 nM

Question: For `Cn1nc(C2CCC(c3ccccc3)C2)c(C(=O)Nc2ccc(F)c(Cl)c2)c1N` (single isomer, unassigned) [AIA-202D, 5-Amino-N-(3-chloro-4-fluorophenyl)-1-methyl-3-(3-phenylcyclopentyl)-1H-pyrazole-4-carboxamide], which EC50 is on record?
Answer: < 100 nM

Question: With `CC(C)OCC1(O)CC2CC(c3nn(C)c(N)c3C(=O)Nc3ccc(F)c(Cl)c3)CC2C1` (single isomer, unassigned) [AIA-339-1, 5-Amino-N-(3-chloro-4-fluorophenyl)-3-(5-hydroxy-5-(isopropoxymethyl)octahydropentalen-2-yl)-1-methyl-1H-pyrazole-4-carboxamide] as the molecule, how does the EC50 read?
Answer: 500 to 10000 nM

Question: How did the EC50 turn out when `COc1cccc(C2CCC(c3nn(C)c(N)c3C(=O)Nc3ccc(F)c(Cl)c3)C2)c1` (centres unmarked) [AIA-276] was run?
Answer: < 100 nM

Question: For `CC(=O)N1CC2CC(c3nn(C)c(N)c3C(=O)Nc3ccc(F)c(Cl)c3)CC2C1` (centres unmarked) [AIA-007], which EC50 is on record?
Answer: < 100 nM

Question: With `Cn1nc(C2CC3CC(O)(CSCCO)CC3C2)c(C(=O)Nc2ccc(F)c(Cl)c2)c1N` (centres unmarked) [AIA-283] as the molecule, how does the EC50 read?
Answer: < 100 nM

Question: With `Cn1nc(C2CC3CC(NS(C)(=O)=O)CC3C2)c(C(=O)Nc2ccc(F)c(Cl)c2)c1N` (centres unmarked) [AIA-042] as the molecule, how does the EC50 read?
Answer: < 100 nM

Question: Which EC50 does the source give for `Cn1nc(C2CC3CC(O)(CSCCN4CCOCC4)CC3C2)c(C(=O)Nc2ccc(F)c(Cl)c2)c1N` (centres unmarked) [AIA-284] here?
Answer: < 100 nM

Question: For `Cn1nc(C2CC3CC(O)(CN4CCCCC4)CC3C2)c(C(=O)Nc2ccc(F)c(Cl)c2)c1N` (single isomer, unassigned) [AIA-363-2, 5-Amino-N-(3-chloro-4-fluorophenyl)-3-(5-hydroxy-5-(piperidin-1-ylmethyl)octahydropentalen-2-yl)-1-methyl-1H-pyrazole-4-carboxamide], which EC50 is on record?
Answer: 100 to 500 nM

Same assay, conditions: Hepatitis B virus, HePAD38, 120 h, 5 days, supernatant HBV DNA by qPCR, read-out: Viral Load EC50 Activity range

Question: For `COCCOc1ccc(C2CCC(c3nn(C)c(N)c3C(=O)Nc3ccc(F)c(Cl)c3)C2)cc1` (centres unmarked) [AIA-297, 5-Amino-N-(3-chloro-4-fluorophenyl)-3-(3-(4-(2-methoxyethoxy)phenyl)cyclopentyl)-1-methyl-1H-pyrazole-4-carboxamide], which EC50 is on record?
Answer: < 100 nM

Question: With `Cn1nc(C2CCC(c3cccnc3)C2)c(C(=O)Nc2ccc(F)c(Cl)c2)c1N` (centres unmarked) [CP-AIA-270, 5-Amino-N-(3-chloro-4-fluorophenyl)-1-methyl-3-(3-(pyridin-3-yl)cyclopentyl)-1H-pyrazole-4-carboxamide] as the molecule, how does the EC50 read?
Answer: < 100 nM

Question: For `Cn1nc(C2CC3CC(O)(CSCCO)CC3C2)c(C(=O)Nc2ccc(F)c(Cl)c2)c1N` (single isomer, unassigned) [AIA-283-1, 5-Amino-N-(3-chloro-4-fluorophenyl)-3-(5-hydroxy-5-(((2-hydroxyethyl)thio)methyl)octahydropentalen-2-yl)-1-methyl-1H-pyrazole-4-carboxamide], which EC50 is on record?
Answer: < 100 nM

Question: `COc1cc(C(=O)NCCS(C)(=O)=O)ccc1C1CCC(c2nn(C)c(N)c2C(=O)Nc2ccc(F)c(Cl)c2)C1` (centres unmarked) [AIA-387-1] was tested. Which EC50 did it give?
Answer: 100 to 500 nM

Question: How did the EC50 turn out when `COc1cc(-c2nccs2)ccc1C1CCC(c2nn(C)c(N)c2C(=O)Nc2ccc(F)c(Cl)c2)C1` (centres unmarked) [AIA-371, 5-Amino-N-(3-chloro-4-fluorophenyl)-3-(3-(2-methoxy-4-(thiazol-2-yl)phenyl)cyclopentyl)-1-methyl-1H-pyrazole-4-carboxamide] was run?
Answer: 500 to 10000 nM

Question: For `Cn1nc(C2CC3CC(O)(CS(=O)(=O)CCO)CC3C2)c(C(=O)Nc2ccc(F)c(Cl)c2)c1N` (single isomer, unassigned) [AIA-266-1, 5-Amino-N-(3-chloro-4-fluorophenyl)-3-(5-hydroxy-5-(((2-hydroxyethyl)sulfonyl)methyl)octahydropentalen-2-yl)-1-methyl-1H-pyrazole-4-carboxamide], which EC50 is on record?
Answer: < 100 nM

Question: Which EC50 does the source give for `CC(N1CC2CC(c3nn(C)c(N)c3C(=O)Nc3ccc(F)c(Cl)c3)CC2C1)C(F)(F)F` (centres unmarked) [AIA-054, 5-Amino-N-(3-chloro-4-fluorophenyl)-1-methyl-3-(2-(1,1,1-trifluoropropan-2-yl)octahydrocyclopenta[c]pyrrol-5-yl)-1H-pyrazole-4-carboxamide] here?
Answer: < 100 nM
